According to US20120232290A1, “REACTIVITY OF HYDROXYMETHYLGLUTARYL COENZYME A (HMG-COA) REDUCTASE INHIBITORS CONTAINING CONJUGATED DIENES WITH PHENOLIC ANTIOXIDANTS IN THE SOLID-STATE” (priority 2007, published 2012):
Where two headings read alike, the source gives them in different places.

How the values were obtained:
[1] = type: physicochemical; conditions: for hydroxy and hydroperoxide products formed: reactions with antioxidants, determined by LC/MS; for change in concentration of statin / decrease in concentration of statin: solid-state, 50° C., 9 days
Description: Solvents used varied due to the solubility of the statin. […] The beaker was placed in a dark oven maintained at 50° C. overnight. The beaker was removed from the oven, allowed to cool, then 20 mL of solvent were added and the beaker swirled to redissolve the solid. The beaker was returned to the oven and heated an additional 24 h at 50° C. This dissolution and heating process was repeated daily for the duration of the specific experiment. […] Reversed-phase HPLC analyses were performed using an Agilent 1100 HPLC with an Agilent diode array detector acquiring data in the range of 205-400 nm. This LC/MS-compatible method utilized a Discovery RP Amide C16 250 mm×4.6 mm, 5 μm column (Supelco Inc, Bellefonte Pa.). Mobile phase A was aqueous 0.1% (v/v) formic acid and mobile phase B was acetonitrile containing 0.1% (v/v) formic acid. Mobile phase flow rate was 1 mL/min and the column was maintained at 30° C. The elution sequence was isocratic 60% A:40% B for 0.5 min; a gradient of 60% A:40% B to 50% A:50% B over 1.5 min then hold for 28 min; 50% A:50% B to 20% A:80% B over 1.0 min then hold for 3 min; 20% A:80% B to 100% B over 1.0 min then hold for 4 min. LC/MS analyses were performed using a Waters Acquity UPLC with PDA and a Micro Quattro MS with infusion pump with the LC method described above.

[2] = Stability of isolated simvastatin hydroperoxide degradates on storage; type: physicochemical; conditions: stored under freezer conditions
[3] = aqueous solution, radical initiator; cited from earlier work

Row | Structure (SMILES) | degradation of statin [1] | change in concentration of statin ([1]; with BHA) | change in concentration of statin ([1]; with α-tocopherol) | hydroxy and hydroperoxide products formed [1] | decomposition of isolate on storage [2] | also measured
1 | CCC(C)(C)C(=O)OC1C[C@](C)(OO)C=C2C=CC(C)C(CCC3CC(O)CC(=O)O3)C21 (stereo partly drawn) [3(S)-hydroperoxysimvastatin] | – | – | – | – | slowly decomposed to numerous products over a few days | –
2 | CC[C@H](C)C(=O)O[C@H]1C[C@@H](C)C=C2C=C[C@H](C)[C@H](CC[C@@H]3C[C@@H](O)CC(=O)O3)[C@H]21 [lovastatin] | Minimal degradation | remained essentially unchanged | remained essentially unchanged | minimal quantities of hydroxy and hydroperoxide products | – | decrease in concentration of statin ([1]; incubated alone): about 12%; decrease in concentration of statin ([1]; with propyl gallate): about 12%; rates of oxidation (lovastatin versus simvastatin) [3]: nearly identical rates of oxidation
3 | CCC(C)(C)C(=O)OC1C[C@@](C)(OO)C=C2C=CC(C)C(CCC3CC(O)CC(=O)O3)C21 (stereo partly drawn) [3(R)-hydroperoxysimvastatin] | – | – | – | – | slowly decomposed to numerous products over a few days | –

Second part, led by results:

Row | degradation of statin [1] | change in concentration of statin ([1]; with BHA) | change in concentration of statin ([1]; with α-tocopherol) | Structure (SMILES) | hydroxy and hydroperoxide products formed [1] | decomposition of isolate on storage [2] | also measured
4 | Minimal degradation | no decrease | no decrease | CC[C@H](C)C(=O)O[C@H]1CCC=C2C=C[C@H](C)[C@H](CC[C@@H]3C[C@@H](O)CC(=O)O3)[C@H]21 [mevastatin] | minimal quantities of hydroxy and hydroperoxide products | – | change in concentration of statin ([1]; incubated alone): no decrease; change in concentration of statin ([1]; with propyl gallate): no decrease
5 | Minimal degradation | – | – | CC[C@H](C)C(=O)O[C@H]1C[C@H](O)C=C2C=C[C@H](C)[C@H](CC[C@@H](O)C[C@@H](O)CC(=O)O)[C@H]21 [pravastatin] | – | – | –
